Test results as given in patent publication EP0777471B1, “INHIBITION OF LEUKOTRIENE BIOSYNTHESIS WITH UREA DERIVATIVES” (MINNESOTA MINING AND MANUFACTURING COMPANY, priority 1994, dated 1996).
“And” between values parts separate entries of the source, which are not always exact repeats. Equal entries are not always repeated. Where two headings read alike, the source gives them in different places.

Tests used:
[1] = system: production of Leukotriene B4; test: Rat ex vivo Leukotriene B4 inhibition (oral dosing, blood challenged with A23187); type: in vivo, Rats; settings: two hours post dose
Outline: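 Male CD rats (250 g, non-fasted) dosed orally with compound in PEG 400, 5 rats/group; blood drawn by cardiac puncture before and 2 h after dosing. Heparinized blood challenged with A23187 calcium ionophore, 30 min at 37°C; plasma LTB4 measured by radioimmunoassay. % inhibition = post-dose vs pre-dose LTB4 level.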

[2] = system: production of Leukotriene B4 (LTB4); test: Dog ex vivo Leukotriene B4 inhibition (oral dosing, blood challenged with calcium ionophore); type: in vivo, beagle dogs; settings: each entry one dog, negative = stimulation of LTB4 production; for inhibition at 5 mg/kg: Canis lupus familiaris, po; for % Inhibition 4 hour / % Inhibition 6 hour / % Inhibition 2 hour / % Inhibition 1 hour: 5 mg/Kg
Outline: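 Beagle dogs (~10 kg) given compound orally by gavage in PEG 400 at 5 mg/kg; jugular blood drawn pre-dose and at selected post-dose times. Blood challenged with calcium ionophore 30 min at 37°C, plasma LTB4 measured by radioimmunoassay; % inhibition from post-dose versus pre-dose LTB4, one dog per value.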

[3] = 1 h, 1 hour post dose, read-out: % Inhibition 1 hour
[4] = 2 h, 2 hour post dose, read-out: % Inhibition 2 hour
[5] = 4 h, 4 hour post dose, read-out: % Inhibition 4 hour
[6] = 6 h, 6 hour post dose, read-out: % Inhibition 6 hour

SMILES	%I ([1]; 50 mg/Kg)	inhibition at 5 mg/kg [2, 3]	inhibition at 5 mg/kg [2, 4]	inhibition at 5 mg/kg [2, 5]	inhibition at 5 mg/kg [2, 6]	% Inhibition 4 hour ([2]; 4 hour post dose)	% Inhibition 6 hour ([2]; 6 hour post dose)	% Inhibition 2 hour ([2]; 2 hour post dose)	%I ([1]; 25 mg/Kg)	%I ([1]; 5 mg/Kg)	%I ([1]; 10 mg/Kg)	% Inhibition 1 hour ([2]; 1 hour post dose)	%I ([1]; 20 mg/Kg)
CC(C)CN(O)C(=O)Nc1ccccc1 [Compound 54, 1-Hydroxy-1-(2-methylpropyl)-3-phenylurea]	42%	99%	97%	33%	43%								
COc1ccc(NC(=O)N(O)C(C)C)cc1 [Compound 23, 1-hydroxy-3-(4-methoxyphenyl)-1-(1-methylethyl)urea]	45%	100%	99%			84% and 82% and 59%	15% and 80% and 98% and 56%						
COc1cccc(NC(=O)N(C)O)c1 [Compound 5, 1-hydroxy-3-(3-methoxyphenyl)-1-methylurea]	82%	100%				99% and 44%	20% and 50%	75%					
CN(O)C(=O)Nc1ccccc1 [Compound 10, 1-hydroxy-1-methyl-3-phenylurea]	41%	100%	100%	49%	52%	34%	42%		23%				
CN(O)C(=O)Nc1cccc(F)c1 [Compound 8, 3-(3-fluorophenyl)-1-hydroxy-1-methylurea]		100%	92%			27% and 11%	9% and -32%			29%			
Cc1ccccc1NC(=O)N(O)C(C)C [Compound 25, 1-hydroxy-1-(1-methylethyl)-3-(2-methylphenyl)urea]	45% and 79%	100%	51%		7%	-45% and -78%	9%	57%	44%		13%	98%	
CN(O)C(=O)Nc1cccc(S(C)(=O)=O)c1 [Compound 59, 1-Hydroxy-1-methyl-3-[3-(methylsulfonyl)phenyl]urea]	65% and 87%	100%	99%			83% and 75% and 78%	37% and 55% and 93% and 76%		49%	9%	23%		20%
CC(C)N(O)C(=O)Nc1ccc(Br)cc1 [Compound 19, 3-(4-bromophenyl)-1-hydroxy-1-(1-methylethyl)urea]	3%	100%	84%			11% and 74%	29% and 65%						
CN(O)C(=O)Nc1cccc(Br)c1 [Compound 6, 3-(3-bromophenyl)-1-hydroxy-1-methylurea]	47%	86%				-36% and 27%	-52% and 19%	11% and 62%		39%		100%	
Cc1cccc(NC(=O)N(C)O)c1 [Compound 7, 1-hydroxy-1-methyl-3-(3-methylphenyl)urea]		100%	100%	70%		56%	-21% and 48%	99%		32%			
CC(C)N(O)C(=O)Nc1ccccc1Cl [Compound 24, 3-(2-chlorophenyl)-1-hydroxy-1-(1-methylethyl)urea]	29%	99%	73%	7%		14%	-21% and -24%	84%				100%	
CN(O)C(=O)Nc1cccc([N+](=O)[O-])c1 [Compound 9, 1-hydroxy-1-methyl-3-(3-nitrophenyl)urea]		100%		33%	56%	18%	54%	34% and 83%	34%				
CC(C)CCN(O)C(=O)Nc1ccccc1 [Compound 44, 1-hydroxy-1-(3-methylbutyl)-3-phenylurea]	18%					-19% and 12%	-19% and 30%	11% and 5%				80% and 52%	
CC(C)N(O)C(=O)Nc1ccccc1F [Compound 20, 3-(2-fluorophenyl)-1-hydroxy-1-(1-methylethyl)urea]	19%	100%	100%	57%	17%	64%	13%						
CC(C)N(O)C(=O)Nc1ccccc1 [Compound 17, 1-hydroxy-1-(1-methylethyl)-3-phenylurea]	26%	100%	98%			70%	64% and 43%						
CC(C)N(O)C(=O)Nc1ccc(F)cc1 [Compound 18, 3-(4-fluorophenyl)-1-hydroxy-1-(1-methylethyl)urea]	3%	100%	100%	49%		57%	46% and -12%						
Cc1cccc(NC(=O)N(O)C(C)C)c1 [Compound 21, 1-hydroxy-1-(1-methylethyl)-3-(3-methylphenyl)urea]		100%	95%			0% and -37%	24% and -8%	88%					
CSc1ccc(NC(=O)N(C)O)cc1 [Compound 1, 1-Hydroxy-1-methyl-3-[4-(methylthio)phenyl]urea]	87%	100%	100%	100%	93%		95%			18%			
CSc1cccc(NC(=O)N(O)C(C)C)c1 [Compound 16, 1-hydroxy-1-(1-methylethyl)-3-[3-(methylthio)phenyl]urea]		100%	97%			-8% and -18% and -14% and -80%	-39% and -24% and -186%		74%				
